The values below come from PMC2667962 (Biochemistry, 2008).

Test [1] can be described thus: Formation of anhydrous cholesterol crystals seen by DSC. In general terms: DSC measures the heat that a sample takes up or gives off during a temperature scan.
A short description of test [2]: DSC of the phase transition of pure SOPC with peptide. Conditions: cooling scans, SOPC without peptide 5 °C.

Turning to “Ac-GWGIK-NH2 [GWGIK, N-acetyl-GWGIK-amide]”, the “formation of cholesterol crystals” value in test [1] (6/4 ratio of SOPC/cholesterol) is “no formation of cholesterol crystals”; in test [1] (mixtures with 30% cholesterol), “small peak corresponding to cholesterol crystals”.

Take LWGIG: the “formation of anhydrous cholesterol crystals” value in test [1] (any of the SOPC/cholesterol ratios) was “no formation of anhydrous cholesterol crystals”. The “transition temperature of pure SOPC” value was 4.7 °C in test [2] (5 mol% peptide), 4.7 °C in test [2] (10 mol% peptide) and 4.5 °C in test [2] (15 mol% peptide).
